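Compound exposure: 48 hours, 5 concentrations, 96-well plates. At the GI50, growth is halved. TGI: concentration producing complete growth inhibition.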
Key:
Assay in all cases: NCI tumour cell line growth inhibition, 48 h
[1] = system: CCRF-CEM leukemia
[2] = system: COLO 205 colon
[3] = system: K-562 leukemia
[4] = system: LOX IMVI melanoma
[5] = system: PC-3 prostate
[6] = system: SK-MEL-5 melanoma
[7] = system: SNB-19 CNS
[8] = system: UO-31 renal
[9] = system: EKVX NSCLC
[10] = system: HCC-2998 colon

## O=C1NI(C#Cc2ccccc2)c2ccccc21
[1]
  TGI: 88.9 µM
[2]
  TGI: > 100 µM
[3]
  TGI: > 100 µM
[4]
  TGI: > 100 µM
[5]
  TGI: 79.6 µM
[6]
  TGI: > 100 µM
[7]
  TGI: > 100 µM
[8]
  TGI: > 100 µM

## COc1cc(C2CC(c3cccc(Nc4ccncc4)c3)=NN2c2ccc(Cl)cc2)cc(OC)c1OC (stereo not given)
[1]
  GI50: 2.39 µM
  TGI: 6.71 µM
[2]
  GI50: 2.12 µM
  TGI: 4.79 µM
[9]
  GI50: 1.46 µM
  TGI: 2.88 µM
[10]
  GI50: 1.54 µM
  TGI: 2.91 µM
[3]
  GI50: 1.81 µM
  TGI: 4.71 µM
[5]
  GI50: 1.4 µM
  TGI: 3 µM
[6]
  GI50: 1.75 µM
  TGI: 3.14 µM
[7]
  GI50: 1.55 µM
  TGI: 2.91 µM
[8]
  GI50: 1.15 µM
  TGI: 2.37 µM

## COc1ccc2c(C(=O)c3cn(CCN4CCOCC4)c4ccccc34)cccc2c1
[1]
  TGI: 85.5 µM
[2]
  TGI: > 92 µM
[9]
  TGI: > 100 µM
[10]
  TGI: > 100 µM
[3]
  TGI: > 100 µM
[4]
  TGI: > 100 µM
[5]
  TGI: > 100 µM
[6]
  TGI: > 100 µM
[7]
  TGI: > 100 µM
[8]
  TGI: > 100 µM

## COC(C)(C)OCCN1CCN(CCN2C3=C(C=C(C(C)=O)C3)Sc3ccccc32)CC1
[1]
  TGI: 32.4 µM
[2]
  TGI: 33.4 µM
[9]
  TGI: > 100 µM
[10]
  TGI: 36.2 µM
[3]
  TGI: 32.2 µM
[4]
  TGI: 42.2 µM
[5]
  TGI: 72.9 µM
[6]
  TGI: 32 µM
[7]
  TGI: 93.3 µM
[8]
  TGI: 43.1 µM

## CC1(C)OC2C(O)C(CO)OC2(C(F)F)O1 (stereo not given)
[1]
  TGI: > 100 µM
[2]
  TGI: > 100 µM
[9]
  TGI: > 100 µM
[10]
  TGI: > 100 µM
[3]
  TGI: > 100 µM
[4]
  TGI: > 100 µM
[5]
  TGI: > 100 µM
[6]
  TGI: > 100 µM
[7]
  TGI: > 100 µM
[8]
  TGI: > 100 µM

## CCCOC(=O)CNC(=O)OC(C)(C)C
[1]
  TGI: > 100 µM
[2]
  TGI: > 100 µM
[9]
  TGI: > 100 µM
[10]
  TGI: > 100 µM
[3]
  TGI: > 100 µM
[4]
  TGI: > 100 µM
[6]
  TGI: > 100 µM
[7]
  TGI: > 100 µM
[8]
  TGI: > 100 µM

## Cc1cccc2c1Sc1ccccc1C2NC(=O)CCN(C)C (stereo not given)
[1]
  TGI: > 100 µM
[2]
  TGI: > 100 µM
[9]
  TGI: > 100 µM
[10]
  TGI: > 100 µM
[3]
  TGI: > 100 µM
[4]
  TGI: > 100 µM
[6]
  TGI: > 100 µM
[7]
  TGI: > 100 µM
[8]
  TGI: > 100 µM

## C=CCN(C(=O)CNC(=O)C(F)(F)F)c1cc(OCc2ccccc2)c2c(c1)c(C)cn2S(=O)(=O)c1ccccc1
[1]
  TGI: > 100 µM
[2]
  TGI: > 100 µM
[9]
  TGI: > 100 µM
[10]
  TGI: > 100 µM
[3]
  TGI: > 100 µM
[4]
  TGI: > 100 µM
[5]
  TGI: > 100 µM
[6]
  TGI: > 100 µM
[7]
  TGI: > 100 µM
[8]
  TGI: 15.6 µM

## COc1ccc(-c2nc3ncccn3c2-c2ccc(SC)cc2)cc1
[1]
  TGI: > 100 µM
[2]
  TGI: 3.31 µM
[3]
  TGI: > 100 µM
[4]
  TGI: 80.4 µM
[5]
  TGI: > 100 µM
[6]
  TGI: 4.29 µM
[7]
  TGI: 5.94 µM
[8]
  TGI: 66.6 µM

## CCOC(=O)c1c2c(n(Cc3ccccc3)c1C)C(=O)C(=O)c1ccccc1-2
[2]
  TGI: 1.69 µM
[9]
  TGI: 1.74 µM
[10]
  TGI: 1.17 µM
[3]
  TGI: > 100 µM
[4]
  TGI: 0.482 µM
[5]
  TGI: 5.14 µM
[6]
  TGI: 0.742 µM
[8]
  TGI: > 100 µM

## Nc1n[nH]c(=O)c2c1c(I)cn2C1OC(CO)C(O)C1O (stereo not given)
[1]
  TGI: 4.12 µM
[2]
  TGI: 7.81 µM
[9]
  TGI: 7.85 µM
[10]
  TGI: 7.45 µM
[3]
  TGI: > 100 µM
[4]
  TGI: 10.6 µM
[6]
  TGI: 13.6 µM
[7]
  TGI: > 100 µM
[8]
  TGI: 5.86 µM

## CN(C)CCNC(=O)c1cccc2ccc(-c3ccc(F)cc3)nc12
[1]
  TGI: 15.8 µM
[2]
  TGI: 10.9 µM
[10]
  TGI: 19.3 µM
[3]
  TGI: 12 µM
[4]
  TGI: 9.88 µM
[6]
  TGI: 11.1 µM
[7]
  TGI: 33.7 µM
[8]
  TGI: 11.4 µM

## O=C(Nc1ccc([N+](=O)[O-])cc1[N+](=O)[O-])C(=O)C(C(=O)c1ccc2ccccc2c1)C1OC(=O)c2ccccc21 (stereo not given)
[1]
  TGI: 32.4 µM
[2]
  TGI: 35 µM
[9]
  TGI: 48 µM
[10]
  TGI: 25 µM
[3]
  TGI: 38.8 µM
[4]
  TGI: 37.6 µM
[6]
  TGI: 31.6 µM
[7]
  TGI: 33 µM
[8]
  TGI: 27.7 µM

## Oc1cn(-c2ccc(Cl)cc2)nc1-c1n[nH]c(=S)n1-c1ccccc1
[2]
  TGI: 54.9 µM
[9]
  TGI: 82.1 µM
[3]
  TGI: > 100 µM
[5]
  TGI: > 100 µM
[6]
  TGI: 15.4 µM
[7]
  TGI: > 100 µM
[8]
  TGI: 62.7 µM

## COc1cc(/C=C/C(=O)Oc2ccc(NC(C)=O)cc2)ccc1C(=O)O/C=C/c1ccccc1
[1]
  TGI: > 100 µM
[2]
  TGI: > 100 µM
[9]
  TGI: > 100 µM
[10]
  TGI: > 100 µM
[3]
  TGI: > 31.6 µM
[4]
  TGI: > 100 µM
[6]
  TGI: > 100 µM
[7]
  TGI: > 100 µM
[8]
  TGI: > 100 µM

## Nc1ccccc1N=Cc1cc2cc([N+](=O)[O-])ccc2s1
[1]
  TGI: 22.8 µM
[2]
  TGI: 45.5 µM
[9]
  TGI: 45.1 µM
[10]
  TGI: 54.6 µM
[3]
  TGI: 35.1 µM
[4]
  TGI: 97.9 µM
[5]
  TGI: 30.9 µM
[6]
  TGI: > 100 µM
[7]
  TGI: 46.6 µM
[8]
  TGI: 48.8 µM

## Cc1cc2c(cc1C(=O)c1ccc(N)cc1)OCO2
[1]
  TGI: > 100 µM
[2]
  TGI: 41.5 µM
[9]
  TGI: > 100 µM
[3]
  TGI: > 100 µM
[5]
  TGI: > 100 µM
[6]
  TGI: 61.4 µM
[7]
  TGI: > 100 µM
[8]
  TGI: > 100 µM

Reference: PubChem BioAssay (NCI)
